In publication PMC9266797 (2022):

How the values were obtained:
[1] = tested on: poly dAdT–poly dAdT (DNA, polymer) AT; assay: DAPI displacement by CD (ICD at 375 nm); conditions: Na+ (sodium cacodylate, I = 0.05 M), pH 7.0, DAPI displaced; for IDA50%: ratio [DAPI]/[compound], range printed for 6 and 7 together
[2] = tested on: poly A–poly U (RNA, polymer) A/U; assay: fluorimetric titration, Scatchard fit; conditions: Na+ (sodium cacodylate, I = 0.05 M), n fixed at 0.2 per nucleobase, per base
[3] = tested on: poly A–poly U (RNA, polymer) A/U; assay: UV melting at 260 nm; conditions: Na+ (sodium cacodylate, I = 0.05 M); pH 7.0; RNA 25 µM, r = 0.25; no Cu2+; per base
[4] = tested on: poly dAdT–poly dAdT (DNA, polymer) AT; assay: UV melting at 260 nm; conditions: Na+ (sodium cacodylate, I = 0.05 M); pH 7.0; DNA 25 µM; no Cu2+; per base
[5] = tested on: poly dAdT–poly dAdT (DNA, polymer) AT; assay: CD (induced band at 375 nm); conditions: Na+ (sodium cacodylate, I = 0.05 M); pH 7.0; DNA 20 µM, r[DAPI]/[DNA] = 0.6

SMILES | IDA50% [1] | log Ks ([2]; pH 7.0, 0.04% DMSO, 1 µM compound) | ∆Tm [3] [°C] | ∆Tm [4] [°C] | binding ([1]; very weakly) | log Ks ([2]; pH 7.0) | binding [5]
COC(=O)[C@H](Cc1c[nH]c2ccccc12)NC(=O)C(Cc1cn(COC(=O)C(C)(C)C)nn1)NC(=O)CCCc1ccc2ccc3cccc4ccc1c2c34 (stereo partly shown) | 0.02–0.01 | 6.8 | 0 ± 0.5 | 0 ± 0.5 |  |  | 
COC(=O)[C@H](Cc1c[nH]c2ccccc12)NC(=O)C(Cc1cn(COC(=O)C(C)(C)C)nn1)NC(=O)[C@@H](N)Cc1c[nH]c2ccccc12 (stereo partly shown) |  |  | 0 ± 0.5 |  | weak |  | 
COC(=O)[C@H](Cc1c[nH]c2ccccc12)NC(=O)C(Cc1cn(COC(=O)C(C)(C)C)nn1)NC(=O)c1ccc2ccc3cccc4ccc1c2c34 (stereo partly shown) | 0.02–0.01 |  | 0 ± 0.5 |  |  | 6.6 | 
N=C(N)c1ccc(-c2cc3ccc(C(=N)N)cc3[nH]2)cc1 |  |  |  |  |  |  | yes
